Calls of active or inactive are those of the source. No cut-off for these calls is given here.
Tests used:
[1] = target: T1, Free fatty acid receptor 4 (Homo sapiens, UniProt Q5NUL3); assay: Agonist activity at ARMS2-PK2 -tagged human GPR120 short isoform expressed in CHOK1 cells assessed as induction of beta-arrestin2 recruitment after 90 mins by luminescence assay; type: cell-based, CHO-K1
T1 sequence (Q5NUL3 whole entry): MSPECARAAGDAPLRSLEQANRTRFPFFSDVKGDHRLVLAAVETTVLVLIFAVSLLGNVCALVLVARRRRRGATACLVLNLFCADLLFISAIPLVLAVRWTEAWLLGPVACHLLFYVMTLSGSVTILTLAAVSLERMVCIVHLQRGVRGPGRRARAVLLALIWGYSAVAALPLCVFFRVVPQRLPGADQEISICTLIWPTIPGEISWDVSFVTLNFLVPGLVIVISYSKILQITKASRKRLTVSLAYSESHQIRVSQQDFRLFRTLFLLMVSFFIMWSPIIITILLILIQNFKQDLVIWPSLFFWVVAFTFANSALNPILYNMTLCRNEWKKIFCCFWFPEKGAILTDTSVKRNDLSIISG

[2] = target: T2, Free fatty acid receptor 4 (Mus musculus, UniProt Q7TMA4); assay: Agonist activity at mouse GPR120 expressed in U2OS cells assessed as induction of beta-arrestin2 recruitment after 90 mins by luminescence assay; type: cell-based
T2 sequence (Q7TMA4 whole entry): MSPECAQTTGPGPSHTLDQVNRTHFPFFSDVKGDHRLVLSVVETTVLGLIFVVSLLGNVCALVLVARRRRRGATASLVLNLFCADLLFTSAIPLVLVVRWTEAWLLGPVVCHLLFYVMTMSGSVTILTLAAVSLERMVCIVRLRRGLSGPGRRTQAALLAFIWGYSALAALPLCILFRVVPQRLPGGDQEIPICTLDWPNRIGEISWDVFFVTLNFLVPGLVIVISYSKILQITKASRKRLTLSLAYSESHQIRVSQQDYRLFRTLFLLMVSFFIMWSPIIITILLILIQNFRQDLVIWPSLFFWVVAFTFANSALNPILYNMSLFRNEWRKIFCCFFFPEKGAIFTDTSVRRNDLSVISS

[3] = target: T1, Free fatty acid receptor 4; assay: Agonist activity at human GPR120 short isoform expressed in CHOK1 cells assessed as induction of IP1 accumulation after 60 mins by HTRF assay; type: functional, cell-based, CHO-K1
[4] = target: T2, Free fatty acid receptor 4; assay: Agonist activity at mouse GPR120 expressed in CHOK1 cells assessed as induction of IP1 accumulation after 60 mins by HTRF assay; type: functional, cell-based, CHO-K1
[5] = target: T3, Free fatty acid receptor 1 (Homo sapiens, UniProt O14842); assay: Agonist activity at human GPR40 expressed in HEK293 cells assessed as induction of IP1 accumulation after 60 mins by HTRF assay; type: functional, cell-based
T3 sequence (O14842 whole entry): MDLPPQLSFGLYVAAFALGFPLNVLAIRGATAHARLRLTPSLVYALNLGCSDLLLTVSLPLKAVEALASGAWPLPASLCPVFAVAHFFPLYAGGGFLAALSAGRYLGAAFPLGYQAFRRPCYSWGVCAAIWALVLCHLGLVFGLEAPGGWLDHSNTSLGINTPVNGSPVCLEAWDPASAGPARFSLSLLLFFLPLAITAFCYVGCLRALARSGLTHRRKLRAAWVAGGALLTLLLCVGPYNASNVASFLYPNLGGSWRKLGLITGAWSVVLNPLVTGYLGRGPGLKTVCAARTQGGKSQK

[6] = target: T1, Free fatty acid receptor 4; assay: Agonist activity at human GPR120 assessed as induction of beta-arrestin recruitment
[7] = target: T2, Free fatty acid receptor 4; assay: Agonist activity at mouse GPR120 assessed as induction of beta-arrestin recruitment
[8] = target: T3, Free fatty acid receptor 1; assay: Agonist activity at human GPR40 assessed as induction of IP1 accumulation; type: functional
[9] = target: T1, Free fatty acid receptor 4; assay: Agonist activity at human GPR120 assessed as induction of IP1 accumulation; type: functional
[10] = target: T2, Free fatty acid receptor 4; assay: Agonist activity at mouse GPR120 assessed as induction of IP1 accumulation; type: functional
[11] = test system: Mus musculus; assay: Antidiabetic activity in diet-induced obese mouse assessed as insulin sensitivity by measuring reduction in glucose at 10 mg/kg, po qd administered daily via gavage for 14 days measured on day 14 post dose; type: functional, organism-based
[12] = test system: Mus musculus; assay: Antidiabetic activity in diet-induced obese mouse assessed as insulin sensitivity by measuring reduction in glucose at 10 mg/kg, po qd administered daily via gavage for 28 days measured on day 28 post dose; type: functional, organism-based
[13] = test system: Mus musculus; assay: Decrease in insulin levels in diet-induced obese mouse at 10 mg/kg, po qd administered daily via gavage for 14 days measured on day 14 post dose; type: functional, organism-based
[14] = test system: Mus musculus; assay: Decrease in insulin levels in diet-induced obese mouse at 10 mg/kg, po qd administered daily via gavage for 28 days measured on day 28 post dose; type: functional, organism-based
[15] = test system: Mus musculus; assay: Antidiabetic activity in diet-induced obese mouse assessed as increase in glucose infusion rate during hyperinsulinemic euglycemic clamp procedure at 10 mg/kg, po qd administered daily via gavage measured after 28 days; type: functional, organism-based
[16] = test system: Mus musculus; assay: Toxicity in diet-induced obese mouse assessed as change in body weight at 10 mg/kg, po qd administered daily via gavage for 28 days; type: organism-based; details: in vivo, 672 h

Row | Compound | EC50 [1] | EC50 [2] | EC50 [3] | EC50 [4] | EC50 [5] | further results
1 | O=C(O)CC1CCC2(CC1)CCN(c1cc(OC(F)(F)F)ccc1F)CC2 | 700 nM | 470 nM | 130 nM | 49 nM | > 10000 nM | –
2 | COc1ccc(Cl)c(N2CCC3(CCC(CC(=O)O)CC3)CC2)c1 | 2500 nM | 5300 nM | 2100 nM | 570 nM | > 10000 nM | –
3 | Cc1cc(-c2cc(OC(F)(F)F)ccc2Cl)cc(C)c1OCCCC(=O)O | – | – | – | – | – | EC50 [6]: 100 nM; EC50 [7]: 35 nM; EC50 [8]: > 10000 nM
4 | O=C(O)C1CCN(c2ccc(-c3cc(OC(F)(F)F)ccc3F)cc2)CC1 | – | – | – | – | – | EC50 [6]: 1600 nM; EC50 [7]: 320 nM; EC50 [9]: 300 nM; EC50 [10]: 89 nM; EC50 [8]: > 10000 nM
5 | CC(C(=O)O)C1CCC2(CC1)CCN(c1cc(OC(F)(F)F)ccc1Cl)CC2 (stereo unspecified) | 4400 nM | – | 3500 nM | – | – | –
6 | O=C(O)CCc1cc2cc(-c3cc(OC(F)(F)F)ccc3F)ccc2o1 | – | – | – | – | – | EC50 [6]: 16 nM; EC50 [7]: 21 nM
7 | O=C(O)CC1CCC2(CC1)CCN(c1ccccc1Cl)CC2 | > 10000 nM | > 10000 nM | > 10000 nM | > 10000 nM | > 10000 nM | –
8 | O=C(O)CC1CCC2(CC1)CCN(c1cc(Cl)cc(Cl)c1)CC2 | 190 nM | 120 nM | 220 nM | 51 nM | 6300 nM | –
9 | O=C(O)c1ccc(C2CCN(c3cc(OC(F)(F)F)ccc3F)CC2)cc1 | – | – | – | – | – | EC50 [6]: > 10000 nM; EC50 [7]: > 10000 nM; EC50 [9]: > 10000 nM; EC50 [10]: > 10000 nM; EC50 [8]: > 10000 nM
10 | O=C(O)C1CC12CCC1(CCN(c3cc(OC(F)(F)F)ccc3Cl)CC1)CC2 (stereo unspecified) | 3900 nM | – | 2200 nM | – | – | –
11 | O=C(O)CN1CCC2(CC1)CCN(c1cc(OC(F)(F)F)ccc1F)CC2 | > 10000 nM | – | > 10000 nM | – | – | –
12 | O=C(O)C1CCC(C2CCN(c3cc(OC(F)(F)F)ccc3F)CC2)CC1 (stereo unspecified) | – | – | – | – | – | EC50 [7]: 990 nM; EC50 [9]: 700 nM; EC50 [10]: 1490 nM; EC50 [8]: > 10000 nM
13 | CC1(C)Cc2cc(Cl)cc(N3CCC4(CCC(CC(=O)O)CC4)CC3)c2O1 | 3100 nM | 4000 nM | 3300 nM | 670 nM | > 10000 nM | –
14 | OCCC1CCC2(CC1)CCN(c1cc(OC(F)(F)F)ccc1Cl)CC2 | 330 nM | – | 4300 nM | – | – | –
15 | O=C(O)CC1CCC2(CC1)CCN(c1cc(F)cc(Cl)c1F)CC2 | 1400 nM | 1100 nM | 420 nM | 190 nM | 8100 nM | –
16 | CCc1ccc(CCOc2ccc(CC3SC(=O)NC3=O)cc2)nc1 (stereo unspecified) [PIOGLITAZONE] | – | – | – | – | – | Activity [11]: Active; Activity [12]: Active; Activity [13]: Active; Activity [14]: Active; Activity [15]: Active; Activity [16]: Toxic
17 | O=C(O)CC1CCC2(CC1)CCN(c1cc(C(F)(F)F)ccn1)CC2 | 9200 nM | 4200 nM | 3100 nM | 1300 nM | > 10000 nM | –
18 | N#Cc1ccc(OC(F)(F)F)cc1N1CCC2(CCC(CC(=O)O)CC2)CC1 | 370 nM | 290 nM | 200 nM | 66 nM | 2500 nM | –
19 | O=C(O)CC1CCC2(CC1)CCN(c1cc(C(F)(F)F)ccc1F)CC2 | 2200 nM | 3000 nM | 1200 nM | 590 nM | > 10000 nM | –
20 | N#Cc1cc(SC(F)(F)F)cc(N2CCC3(CCC(CC(=O)O)CC3)CC2)c1 | 480 nM | 140 nM | 360 nM | 44 nM | > 10000 nM | –

Further lines, with some results ahead:

Row | EC50 [1] | EC50 [2] | EC50 [3] | EC50 [4] | EC50 [5] | Compound | further results
21 | 2700 nM | – | 4100 nM | – | – | CC1CC2(CCC1CC(=O)O)CCN(c1cc(OC(F)(F)F)ccc1Cl)CC2 (stereo unspecified) | –
22 | 580 nM | – | 440 nM | – | – | CC1CC(CC(=O)O)CCC12CCN(c1cc(OC(F)(F)F)ccc1Cl)CC2 (stereo unspecified) | –
23 | 1000 nM | – | 2700 nM | – | – | O=C(O)CCC1CCC2(CC1)CCN(c1cc(OC(F)(F)F)ccc1Cl)CC2 | –
24 | 2100 nM | – | 5700 nM | – | – | O=C(O)CC1CCC2(CCN(c3cc(OC(F)(F)F)ccc3Cl)CC2)OC1 (stereo unspecified) | –
